In patent US20160200847A1, “CLICKABLE POLYMERS AND GELS FOR MICROARRAY AND OTHER APPLICATIONS” (priority 2014, published 2016):

Target: T1, Concanavalin A (ConA) (Canavalia ensiformis, UniProt P02866)
T1 construct: purchased Sigma Aldrich
Test: Glycan microarray incubated with biotinylated ConA, Cy3-streptavidin fluorescence detection
Type: binding
Conditions: spotted at 50 μM; 100 ng/ml (0.943 nM) biotinylated ConA; Cy3-labelled streptavidin
Protocol: Four hundreds pL of each glycan was spotted at 10 μM or 50 μM concentration from an aqueous solution of […] (2.5 mM) and ascorbic acid (12.5 mM). A α-mannoside (10) and β-galactoside (11) were used as positive and negative controls. The immobilization reaction took place during an overnight incubation in a humid chamber at room temperature. The printed slides were sequentially washed with PBS buffer for 10 minutes with DI water and dried by a nitrogen stream. The arrayed slides were then incubated with biotinylated α-mannose-binding lectin Concanavalin A (ConA) in the lectin binding buffer (LBB, 50 mM HEPES, pH 7.4, 5 mM MnCl2, 5 mM CaCl2) in the presence of BSA (0.2 mg/ml). […] A final incubation of 1 h with 2 μg/ml Cyanine3 labelled Streptavidin in PBS (Phosphate Saline Buffer) in a humid chamber at room temperature under static condition enabled the fluorescence detection of the surface bound ConA by means of a scanner (ProScanArray scanner from Perkin Elmer, Boston, Mass., USA) used at 70% of laser power and 60% of photomultiplier (PMT) gain (FIG. 2b). The fluorescence intensities of 11 spot replicates were confirmed by three experiments that provided the same fluorescence intensities for each glycomimetic, with a standard deviation lower than 5%. […]
The graph (b) of FIG. 2 reports the fluorescence intensity observed for different glycan spots. […]

## OC[C@H]1O[C@@H](O)[C@H](O)[C@@H](O)[C@H]1O [Glycomimetic 11, β-galactose]
  interaction with ConA (spot fluorescence intensity, qualitative): lack of fluorescence
